Data published in ChEMBL document CHEMBL5126532, “Synthetic approaches and structural diversity of triazolylbutanols derived from voriconazole in the antifungal drug development” (Eur J Med Chem, 2022).
In brackets after ≈: the same amount, converted by molar mass.

Tests used:
Format in all cases: functional
Candida albicans [1] = assay: Antifungal activity against Candida albicans
Cryptococcus neoformans [2] = assay: Antifungal activity against Cryptococcus neoformans TIMM1855 assessed as inhibition of fungal growth incubated for 68 hrs
Aspergillus fumigatus [3] = assay: Antifungal activity against Aspergillus fumigatus IFO6344 assessed as inhibition of fungal growth incubated for 20 hrs
Candida albicans [4] = assay: Antifungal activity against Candida albicans TIMM1850 assessed as inhibition of fungal growth incubated for 20 hrs
Aspergillus fumigatus [5] = assay: In vivo antifungal activity against Aspergillus fumigatus infected in CDF1 mouse treated po 4 hrs after injection twice daily for 2 days measured on day 10; settings: 48 h, time 2 day
Candida albicans [6] = assay: Antifungal activity against Candida albicans TIMM1756 assessed as inhibition of fungal growth incubated for 20 hrs
Cryptococcus neoformans [7] = assay: Antifungal activity against Cryptococcus neoformans TIMM1740 assessed as inhibition of fungal growth incubated for 68 hrs
Aspergillus fumigatus [8] = assay: Antifungal activity against Aspergillus fumigatus TIMM1728 assessed as inhibition of fungal growth incubated for 20 hrs
Candida albicans [9] = assay: In vivo antifungal activity against Candida albicans infected in CDF1 mouse treated po 4 hrs after injection twice daily for 2 days measured on day 10; settings: 48 h, time 2 day
Aspergillus fumigatus [10] = assay: Antifungal activity against Aspergillus fumigatus
Candida parapsilosis = assay: Antifungal activity against Candida parapsilosis; settings: Lodderomyces parapsilosis
Candida albicans [11] = assay: Antifungal activity against Candida albicans SANK 51486 by 96-well microplate method
Aspergillus fumigatus [12] = assay: Antifungal activity against Aspergillus fumigatus SANK 10569 by 96-well microplate method
Cryptococcus neoformans [13] = assay: Antifungal activity against Cryptococcus neoformans TIMM 1855 by 96-well microplate method
Aspergillus flavus = assay: Antifungal activity against Aspergillus flavus SANK 18497 by 96-well microplate method
Candida albicans [14] = assay: Antifungal activity against Candida albicans assessed as inhibition of fungal growth incubated for 20 hrs
Aspergillus sp. = assay: Antifungal activity against Aspergillus sp
Cryptococcus neoformans [15] = assay: Antifungal activity against Cryptococcus neoformans
Candida = assay: Antifungal activity against Candida spp.

SMILES: C[C@@H](OCc1cc(-c2ccc(F)cc2Cl)no1)[C@](O)(Cn1cncn1)c1ccc(F)cc1F
- MIC80 (Candida albicans [1]): 0.0313 µg/mL (≈ 0.0654 µM)

SMILES: C[C@@H](N1CCN(c2ccc(-n3ccnn3)cc2)C1=O)[C@](O)(Cn1cncn1)c1ccc(F)cc1F
- MIC (Cryptococcus neoformans [2]): 0.016 µg/mL (≈ 0.0333 µM)
- MIC (Aspergillus fumigatus [3]): 0.25 µg/mL (≈ 0.52 µM)
- MIC (Candida albicans [4]): ≤ 0.001 µg/mL
- ED50 (Aspergillus fumigatus [5]): 4 mg/kg
- MIC (Candida albicans [6]): ≤ 0.001 µg/mL
- MIC (Cryptococcus neoformans [7]): 0.016 µg/mL (≈ 0.0333 µM)
- MIC (Aspergillus fumigatus [8]): 0.25 µg/mL (≈ 0.52 µM)
- ED50 (Candida albicans [9]): 0.18 mg/kg

SMILES: C[C@@H](N1CCN(c2ccc(-n3cnn(Cc4ccc(OC(F)(F)F)cc4)c3=O)cc2)CC1)[C@](O)(Cn1cncn1)c1ccc(F)cc1F
- MIC (Aspergillus fumigatus [10]): 32 µg/mL (≈ 47.7 µM)

SMILES: C[C@@H](OCc1cc(-c2ccc(C#N)cc2)no1)[C@](O)(Cn1cncn1)c1ccc(F)cc1F
- MIC80 (Candida albicans [1]): 0.0313 µg/mL (≈ 0.0693 µM)

SMILES: Cc1ccc(-c2cc(CO[C@H](C)[C@](O)(Cn3cncn3)c3ccc(F)cc3F)on2)cc1
- MIC80 (Candida albicans [1]): 0.0313 µg/mL (≈ 0.0711 µM)

SMILES: CC(C)n1ncn(-c2ccc(N3CCN([C@H](C)[C@](O)(Cn4cncn4)c4ccc(F)cc4F)CC3)nc2)c1=O
- MIC (Candida parapsilosis): 0.25 µg/mL (≈ 0.463 µM)

SMILES: C[C@@H](OCc1cc(-c2ccc(Cl)cc2F)no1)[C@](O)(Cn1cncn1)c1ccc(F)cc1F
- MIC80 (Candida albicans [1]): 0.0313 µg/mL (≈ 0.0654 µM)

SMILES: C[C@@H](N1CCN(c2ccc(-n3cnn(Cc4cccc(C(F)(F)F)c4)c3=O)nc2)CC1)[C@](O)(Cn1cncn1)c1ccc(F)cc1F
- MIC (Candida parapsilosis): 4 µg/mL (≈ 6.1 µM)

SMILES: C[C@@H](S[C@H]1CO[C@H](/C=C/C=C/c2ccc(C#N)cc2F)OC1)[C@](O)(Cn1cncn1)c1c(F)cccc1F
- MIC (Candida albicans [11]): ≤ 0.008 µg/mL
- MIC (Aspergillus fumigatus [12]): ≤ 0.008 µg/mL
- MIC (Cryptococcus neoformans [13]): ≤ 0.008 µg/mL
- MIC (Aspergillus flavus): ≤ 0.008 µg/mL

SMILES: C[C@@H](OCc1cc(-c2cccc(Cl)c2)no1)[C@](O)(Cn1cncn1)c1ccc(F)cc1F
- MIC80 (Candida albicans [1]): 0.0313 µg/mL (≈ 0.0679 µM)

SMILES: C[C@@H](N1CCN(c2ccc(-n3cnn(Cc4ccc(C(F)(F)F)cc4)c3=O)cn2)CC1)[C@](O)(Cn1cncn1)c1ccc(F)cc1F
- MIC (Candida parapsilosis): 4 µg/mL (≈ 6.1 µM)

SMILES: C[C@@H](N1CCN(c2ccc(-n3cnn(Cc4cc(C(F)(F)F)cc(C(F)(F)F)c4C(F)(F)F)c3=O)cn2)CC1)[C@](O)(Cn1cncn1)c1ccc(F)cc1F
- MIC (Candida parapsilosis): 4 µg/mL (≈ 5.05 µM)

SMILES: CCC(=O)OC[n+]1cnn(C[C@](O)(c2ccc(F)cc2F)[C@@H](C)N2CCN(c3ccc(-n4cnnn4)cc3)C2=O)c1.[I-]
- MIC (Candida albicans [14]): 0.016 µg/mL

SMILES: CC(=O)NCCOC(=O)OC[n+]1cnn(C[C@](O)(c2ccc(F)cc2F)[C@@H](C)N2CCN(c3ccc(-n4cnnn4)cc3)C2=O)c1.[I-]
- MIC (Candida albicans [14]): 0.016 µg/mL

SMILES: Cc1ccccc1-c1cc(CO[C@H](C)[C@](O)(Cn2cncn2)c2ccc(F)cc2F)on1
- MIC80 (Candida albicans [1]): 0.0313 µg/mL (≈ 0.0711 µM)

SMILES: C[C@@H](N1CCN(c2ccc(-n3cnn(Cc4ccc(OC(F)(F)F)cc4)c3=O)cn2)CC1)[C@](O)(Cn1cncn1)c1ccc(F)cc1F
- MIC (Candida parapsilosis): 4 µg/mL (≈ 5.96 µM)

SMILES: C[C@@H](S[C@H]1CO[C@H](/C=C/C=C/c2ccc(C#N)cc2)OC1)[C@](O)(Cn1cncn1)c1ccc(F)cc1F
- MIC (Candida albicans [11]): ≤ 0.008 µg/mL
- MIC (Aspergillus fumigatus [12]): ≤ 0.008 µg/mL
- MIC (Cryptococcus neoformans [13]): ≤ 0.008 µg/mL
- MIC (Aspergillus flavus): ≤ 0.008 µg/mL

SMILES: C[C@@H](OCc1cc(-c2ccc(C(F)(F)F)cc2)no1)[C@](O)(Cn1cncn1)c1ccc(F)cc1F
- MIC80 (Candida albicans [1]): 0.0313 µg/mL (≈ 0.0633 µM)

SMILES: C[C@@H](OCc1cc(-c2c(F)c(F)c(F)c(F)c2F)no1)[C@](O)(Cn1cncn1)c1ccc(F)cc1F
- MIC80 (Candida albicans [1]): 0.0313 µg/mL (≈ 0.0606 µM)

SMILES: C[C@@H](OCc1cc(-c2cccc(F)c2)no1)[C@](O)(Cn1cncn1)c1ccc(F)cc1F
- MIC80 (Candida albicans [1]): 0.0313 µg/mL (≈ 0.0704 µM)

SMILES: C[C@@H](OCc1cc(-c2ccc(F)c(Cl)c2)no1)[C@](O)(Cn1cncn1)c1ccc(F)cc1F
- MIC80 (Candida albicans [1]): 0.0313 µg/mL (≈ 0.0654 µM)

SMILES: C[C@@H](N1CCN(c2ccc(-n3cncn3)cc2)C1=O)[C@](O)(Cn1cncn1)c1ccc(F)cc1F
- MIC (Cryptococcus neoformans [2]): 0.016 µg/mL (≈ 0.0333 µM)
- MIC (Aspergillus fumigatus [3]): 0.25 µg/mL (≈ 0.52 µM)
- MIC (Candida albicans [4]): ≤ 0.001 µg/mL
- ED50 (Aspergillus fumigatus [5]): 4.4 mg/kg
- MIC (Candida albicans [6]): ≤ 0.001 µg/mL
- MIC (Cryptococcus neoformans [7]): 0.016 µg/mL (≈ 0.0333 µM)
- MIC (Aspergillus fumigatus [8]): 0.25 µg/mL (≈ 0.52 µM)
- ED50 (Candida albicans [9]): 0.18 mg/kg

SMILES: C[C@@H](OCc1cc(-c2ccccc2F)no1)[C@](O)(Cn1cncn1)c1ccc(F)cc1F
- MIC80 (Candida albicans [1]): 0.0313 µg/mL (≈ 0.0704 µM)

SMILES: C[C@@H](N1CCN(c2ccc(-n3cnn(Cc4ccc(OC(F)(F)F)cc4)c3=O)nc2)CC1)[C@](O)(Cn1cncn1)c1ccc(F)cc1F
- MIC (Candida parapsilosis): 4 µg/mL (≈ 5.96 µM)

SMILES: C[C@@H](N1CCN(c2ccc(-n3cnn(Cc4ccc(C(F)(F)F)cc4)c3=O)nc2)CC1)[C@](O)(Cn1cncn1)c1ccc(F)cc1F
- MIC (Candida parapsilosis): 4 µg/mL (≈ 6.1 µM)

SMILES: C[C@@H](S[C@H]1CO[C@H](/C=C/C=C/c2ccc(C#N)cc2F)OC1)[C@](O)(Cn1cncn1)c1cccc(F)c1F
- MIC (Candida albicans [11]): ≤ 0.008 µg/mL
- MIC (Aspergillus fumigatus [12]): ≤ 0.008 µg/mL
- MIC (Cryptococcus neoformans [13]): ≤ 0.008 µg/mL
- MIC (Aspergillus flavus): ≤ 0.008 µg/mL

SMILES: C[C@@H](OCc1cc(-c2ccccc2)no1)[C@](O)(Cn1cncn1)c1ccc(F)cc1F
- MIC80 (Candida albicans [1]): 0.0313 µg/mL (≈ 0.0734 µM)

SMILES: C[C@@H](N1C(=O)N(c2ccc(-n3cnnn3)cc2)CC1O)[C@](O)(Cn1cncn1)c1ccc(F)cc1F (stereo in doubt; 140a)
- MIC (Aspergillus sp.; Aspergillus sp., read-out: MIC): 32 µg/mL (≈ 64.3 µM)
- MIC (Cryptococcus neoformans [15]; Cryptococcus neoformans, read-out: MIC): 8 µg/mL (≈ 16.1 µM)
- MIC (Candida): ≥ 0.25 µg/mL

SMILES: C[C@@H](N1C(=O)N(c2ccc(-n3cnnn3)cc2)CC1O)[C@](O)(Cn1cncn1)c1ccc(F)cc1F (stereo in doubt; 140b)
- MIC (Aspergillus sp.): 32 µg/mL (≈ 64.3 µM)
- MIC (Cryptococcus neoformans [15]): 8 µg/mL (≈ 16.1 µM)
